Assay results: patent publication EP4653435A1, “PRMT5-MTA INHIBITOR” (Suzhou Puhe Biopharma Co., Ltd., priority 2023, dated 2024)
Where two headings read alike, the source gives them in different places.

Key:
HCT116-MTAPwt = assay: 2D antiproliferative assay (CTG cell viability), wild-type cells; format: cell-based; conditions: Homo sapiens, HCT-116, 7-10 days
Method: (§1) HCT116 wild-type and MTAP-deficient cells were cultured in McCoy's 5A medium containing 10% FBS and 1% penicillin-streptomycin, and cultured in a 37°C, 5% CO2 constant temperature incubator. 40 µL of cell suspension was introduced into each well of a 384-well microplate. 40 nL of different concentrations of test compounds were added to each well using an Echo, before culturing in a 37°C, 5% CO2 constant temperature incubator for 7-10 days. 40 µL of CTG solution (Promega, Cat No. G7573) was added to each well and incubated in a 37°C, 5% CO2 constant temperature incubator for 30 minutes in the dark.

[1] = Liver microsomal stability assay, mouse; format: in vitro ADME; conditions: mouse liver microsomes 0.5 mg/mL, compound 1 µM, NADPH 1 mM, 60 minute
Method: (§5) The compounds to be tested were co-incubated with liver microsomes of different species with or without the addition of NADPH. The final concentration of the test compounds in the test system was 1 µM, the final concentration of NADPH was 1 mM, and the final concentration of liver microsomes was 0.5 mg/mL.

HCT116-MTAPdel = assay: 2D antiproliferative assay (CTG cell viability), MTAP-deficient cells; format: cell-based; conditions: for IC50: Homo sapiens, HCT-116, HCT116 MTAP-deficient cells, 7-10 days, CTG, read-out: HCT116-MTAPdel/IC50/nM; for HCT116WT IMTAPdel selectivity: ratio IC50 wild type / MTAPdel, antiproliferation
Method: as §1

[2] = Liver microsomal stability assay, human
Method: as §5

[3] = Membrane permeability: Caco-2 assay; format: in vitro ADME; conditions: human; for efflux ratio: Caco-2, Efflux Ratio = Papp(B-A)/Papp(A-B); for Papp A→B / Papp B→A: Caco-2, apical pH 6.5, basolateral pH 7.4
Method: The membrane permeability of the molecules of the invention was evaluated. […] Efflux Ratio = Papp(B−A) /Papp(A−B) [formula]

[4] = Mouse pharmacokinetics testing; format: in vivo, CD1 female mice
Method: CD1 female mice were used as test animals and administered the compounds orally/intravenously (oral dosage was 10 mg/kg and intravenous dosage was 2 mg/kg). Test protocol: Each oral and intravenous group consisted of three mice. […] Plasma drug concentrations after oral and intravenous administration were determined by LC/MS/MS, and the collected data analyzed using AB Sciex QTRAP 6500 software.

SDMA/HCT116-MTAPdel = assay: In-cell arginine symmetric dimethylation inhibition (In-cell western, ICW), MTAP-deficient cells; format: cell-based; conditions: for IC50: Homo sapiens, HCT-116, HCT116 MTAP-deficient cells, 96 hours; for Selectivity wt/MTAPdel: ratio SDMA IC50 wt / MTAPdel
Method: (§2) 60 nL of different concentrations of compounds were added to each well using an Echo, and incubated at 37°C, 5% CO2 for 96 hours.
(§3) Next, 50 µL of 4% paraformaldehyde solution was added to each well and incubated at room temperature for 20 minutes to fix the cells. The solution in the wells was removed, and each well was rinsed four times with PBS solution containing 0.1% Tween 20 (PBST). To each well was then added 30 µL of ice-cold methanol. After standing at -20°C for 10 minutes, the methanol was removed and the wells washed four times with PBST. 30 µL of Odyssey blocking solution containing 0.5% Tween 20 was added to each well and shaken for 2 hours at room temperature. The blocking solution was removed and 30 µL of primary antibody (Symmetric Di-Methyl Arginine Motif [sdma-RG] MultiMab™ Rabbit mAb mix) diluted at 1:500 in Odyssey blocking solution containing 0.5% Tween 20 was added to each well. The plates were incubated overnight at 4°C, before removing the primary antibody and rinsing each well four times with PBST, 5 minutes per rinse. Secondary antibody (goat anti-rabbit IRDye 800CW, 1:800) and nuclear stain (DRAQ5, 1:10000) diluted in Odyssey blocking solution containing 0.5% Tween 20 were then added to each well before incubating at room temperature for 2 hours in the dark. The secondary antibody was removed, and the wells rinsed four times with PBST.
(§4) The sdme-RG and DRAQ5 signals were scanned at 800 nm and 700 nm respectively on a Li-Cor Odyssey instrument and the signal values recorded. The sdme-RG/DRAQ5 ratio was used to calculate the percentage inhibition of arginine symmetric dimethylation (SDMA), and the IC50 value calculated using GraphPad Prism software.

SDMA/HCT116-MTAPwt = assay: In-cell arginine symmetric dimethylation inhibition (In-cell western, ICW), wild-type cells; format: cell-based; conditions: Homo sapiens, HCT-116, 96 hours
Method: as §2, §3, §4

[5] = female, CD1, mouse, in vivo, iv, 2 mg/kg
[6] = female, CD1, mouse, in vivo, po, 10 mg/kg

Compound | IC50 (HCT116-MTAPwt) [nM] | IC50 (HCT116-MTAPdel) [nM] | HCT116WT IMTAPdel selectivity (HCT116-MTAPdel) | CLint scaled at 1 h, 1 µM ([2]; microsomes) [mL/min/kg] | CLint scaled at 1 µM ([2]; liver microsomes) [mL/min/kg] | IC50 (SDMA/HCT116-MTAPdel) [nM] | IC50 (SDMA/HCT116-MTAPwt) [nM] | further results
C[C@H](c1ncccn1)N(Cc1ccc(C(F)(F)F)cn1)C(=O)C(=O)Nc1cnc(N)c2c1cnn2C [Compound P1] | 196 | 9 | 22 | 18 | – | – | – | CLint scaled at 1 h, 1 µM [1]: 177 mL/min/kg
CN(C(=O)C(=O)Nc1cnc(N)c2c1cnn2C)C1COc2cc(C(F)(F)F)ccc21 (stereo not shown) [Compound P2] | 2680 | 32 | 84 | – | 13 | – | – | efflux ratio [3]: 1.5; Papp A→B [3]: 13.5 ×10⁻⁶ cm/s; Papp B→A [3]: 20.5 ×10⁻⁶ cm/s
CN(C(=O)C(=O)Nc1cnc(N)c2c1cnn2C)[C@@H]1COCc2nc(C(F)(F)F)ccc21 [Compound P9a] | 4000 | 12 | 333 | – | 2.1 | 0.9 | 2450 | F ([4]; female, CD1, mouse, in vivo): 77%; AUC(0-t) [4, 5]: 3990 ng·h/mL; C0 [4, 5]: 5650 ng/mL; clearance [4, 5]: 8.3 mL/min/kg; half-life [4, 5]: 1.2 h; AUC(0-t) [4, 6]: 15400 ng·h/mL; Cmax [4, 6]: 10800 ng/mL; Tmax [4, 6]: 0.25 h; half-life [4, 6]: 1.1 h; efflux ratio [3]: 2.9; Papp A→B [3]: 8.65 ×10⁻⁶ cm/s; Papp B→A [3]: 25.1 ×10⁻⁶ cm/s; Selectivity wt/MTAPdel (SDMA/HCT116-MTAPdel): 2722; CLint scaled at 1 µM [1]: 10 mL/min/kg
CN(C(=O)C(=O)Nc1cnc(N)c2c1cnn2C)C1COc2cc(OC(F)(F)F)ccc21 (stereo not shown) [Compound P30] | 3140 | 13 | 241 | – | 9.4 | – | – | F ([4]; female, CD1, mouse, in vivo): 74%; AUC(0-t) [4, 5]: 1410 ng·h/mL; C0 [4, 5]: 1070 ng/mL; clearance [4, 5]: 23 mL/min/kg; half-life [4, 5]: 2 h; AUC(0-t) [4, 6]: 5150 ng·h/mL; Cmax [4, 6]: 1850 ng/mL; Tmax [4, 6]: 0.25 h; half-life [4, 6]: 1.5 h
C[C@@H]1CC[C@@H](c2ccc3scnc3c2)N(C(=O)C(=O)Nc2cnc(N)c3c2cnn3C)C1 (racemic) [Compound P3] | 827 | 13 | – | – | – | – | – | Papp A→B [3]: 2.66 ×10⁻⁶ cm/s; Papp B→A [3]: 34.2 ×10⁻⁶ cm/s; CLint scaled at 1 h, 1 µM ([2]; liver microsomes): 23.9 mL/min/kg
C[C@H]1CC[C@H](c2ccc3scnc3c2)N(C(=O)C(=O)Nc2cnc(N)c3c2cnn3C)C1 [Compound P3b] | 275 | 2 | – | – | – | 0.6 | 578 | F ([4]; PO (10 mg/kg) vs IV (2 mg/kg), CD1 female mice): 31%; AUC(0-t) ([4]; mouse, IV (2 mg/kg), CD1 female mice, plasma, read-out: AUC0-24): 383 ng·h/mL; C0 ([4]; mouse, IV (2 mg/kg), CD1 female mice, plasma, read-out: C0): 1650 ng/mL; clearance ([4]; mouse, IV (2 mg/kg), CD1 female mice, plasma, read-out: Cl): 86.6 mL/min/kg; half-life ([4]; mouse, IV (2 mg/kg), CD1 female mice, plasma, read-out: T1/2 (converted)): 0.32 h; AUC(0-t) ([4]; mouse, PO (10 mg/kg), CD1 female mice, plasma, read-out: AUC0-24): 586 ng·h/mL; Cmax ([4]; mouse, PO (10 mg/kg), CD1 female mice, plasma, read-out: Cmax): 883 ng/mL; half-life ([4]; mouse, PO (10 mg/kg), CD1 female mice, plasma, read-out: T1/2 (converted)): 1.1 h; Tmax ([4]; mouse, PO (10 mg/kg), CD1 female mice, plasma, read-out: Tmax): 0.25 h
Cc1cc(NC(=O)C(=O)N2C[C@@H](C)CC[C@@H]2c2ccc3scnc3c2)cnc1N [TNG908, reference compound] | 1190 | 43 | 27 | – | – | 2.6 | 2210 | Selectivity wt/MTAPdel (SDMA/HCT116-MTAPdel): 850
Cc1cc2cc(C(=O)N(Cc3ccc(C(F)(F)F)cn3)[C@H](C)c3ncccn3)ccc2nc1N [AM9747, reference compound] | 237 | 7 | – | – | – | 0.6 | 332 | –
CCN(C(=O)C(=O)Nc1cnc(N)c2c1cnn2C)[C@@H]1COc2cc(C(F)(F)F)ccc21 [Compound P19a] | 1080 | 6 | 181 | 20 | – | – | – | F ([4]; mouse, in vivo): 59%; AUC(0-t) at 24 h ([4]; mouse, in vivo, iv, 2 mg/kg): 1480 ng·h/mL; C0 ([4]; mouse, in vivo, iv, 2 mg/kg): 1210 ng/mL; clearance ([4]; mouse, in vivo, iv, 2 mg/kg): 21.5 mL/min/kg; half-life ([4]; mouse, in vivo, iv, 2 mg/kg): 2.1 h; AUC(0-t) at 24 h ([4]; mouse, in vivo, po, 10 mg/kg): 4390 ng·h/mL; Cmax ([4]; mouse, in vivo, po, 10 mg/kg): 1100 ng/mL; Tmax ([4]; mouse, in vivo, po, 10 mg/kg): 0.5 h; half-life ([4]; mouse, in vivo, po, 10 mg/kg): 6.8 h; CLint scaled at 1 h, 1 µM [1]: 110 mL/min/kg
C[C@H]1CC[C@H](c2ccc3sc(CCN(C)C)nc3c2)N(C(=O)C(=O)Nc2cnc(N)c3c2cnn3C)C1 (racemic) [Compound P15] | 203 | 6 | 34 | 9.7 | – | – | – | –
C[C@H]1COC[C@@H](c2ccc(C(F)(F)F)cn2)N1C(=O)C(=O)Nc1cnc(N)c2c1cnn2C (racemic) [Compound P11] | 855 | 15 | 57 | 16.5 | – | – | – | –
CN(C(=O)C(=O)Nc1cnc(N)c2c1cnn2C)C1COCc2nc(C(F)(F)F)ccc21 (stereo not shown) [Compound P9] | 1420 | 24 | 59 | – | 5 | – | – | –
CN(C(=O)C(=O)Nc1cnc(N)c2c1cnn2C)[C@@H]1COCc2nc(-c3cncc(Cl)c3)ccc21 [Compound H2b] | 1230 | 4 | 308 | – | 21.3 | – | – | –
